Experimental data taken from US20010056085A1, “Methods of using vesicant drug formulations” (priority 1996, published 2001).
Entries after “also recorded” stand apart in the source; their conditions may differ. Where two headings read alike, the source gives them in different places.

Legend:
[1] = Effect of UVA irradiation on the absorbance spectrum of DOX (350-600 nm; KDOX at 480 nm); assay type: physicochemical; details: for photoenhancing effect on riboflavin-mediated UVA destruction of DOX (absorbance at 480 nm): 100 μM compound, 0.5 μM riboflavin in PBS without Ca2+ and Mg2+, 0 to 20 minutes UVA
[2] = tested on: P388 cells; assay: In vitro cell culture assay: growth inhibitory effect of UVA-irradiated DOX solutions; assay type: cell-based, murine
Description: Cell culture was carried out as previously described (Ramu et al. [1984] Cancer Res., 44:144). Briefly, P388 murine leukemia cells (i.e., P388D1 available from the ATCC; […] An inoculum of cells was transferred to fresh medium once every 4 days to maintain exponential growth. […] Drug solutions (0.2 ml/well) in 24 well culture clusters without the lid were irradiated in a laminar flow hood with 3 Blacklight Blue 40 W lamps (Vilber Lourmat, Marne la Vallee, France).

[3] = tested on: P388 cells and P388/ADR cells; assay: Catalase protection of cells from UVA irradiation; assay type: cell-based, murine; details: 0.01 to 100 U/ml catalase in PBS or RPMI 1640
[4] = tested on: P388 or P388/ADR cell lines; assay: Effect of catalase on the growth inhibitory effect of DOX; assay type: cell-based, murine; details: 30 U/ml catalase
[5] = Half-life of ADR destruction by UVA light in the presence of test compounds (decrease in absorbance at 480 nm); assay type: physicochemical
[6] = UVA light, 100 μM test compound with 0.5 μM riboflavin
[7] = UVA light, 100 μM test compound alone

## Cc1cc2nc3c(=O)[nH]c(=O)nc-3n(C[C@H](O)[C@H](O)[C@H](O)COP(=O)(O)OP(=O)(O)OC[C@H]3O[C@@H](n4cnc5c(N)ncnc54)[C@H](O)[C@@H]3O)c2cc1C [FAD, flavin adenine dinucleotide]
[1]; in the presence or absence of DABCO
  effectiveness in mediating the UVA inactivation of DOX compared with riboflavin: not as effective as riboflavin
[2]; UVA effect on DOX
  raise of concentration needed to obtain an effect comparable to riboflavin or FMN: 5 fold

## catalase
[1]; 150 units/ml catalase, 20 μM DOX in RPMI medium 1640
  effect on the rate of destruction of DOX by UVA irradiation: did not affect the rate of destruction of DOX
[3]
  protection of cells from damage (inhibition of growth) by protracted UVA irradiation: protected the cells from damage
[4]
  interference with the growth inhibitory effect of DOX: does not interfere with the growth inhibitory effect of DOX

## N[C@@H](Cc1c[nH]cn1)C(=O)O [Histidine]
[1]; 20 μM DOX
  photoenhancing effect on riboflavin-mediated UVA destruction of DOX (absorbance at 480 nm): enhanced
[5]; [6]
  Half-Life of ADR Destruction, 100 μM Test Compound and 0.5 μM Riboflavin: 55.2 ± 7.1 min

## COc1cccc2c1C(=O)c1c(O)c3c(c(O)c1C2=O)C[C@@](O)(C(=O)CO)C[C@@H]3O[C@H]1C[C@H](N)[C@H](O)[C@H](C)O1.Cl [DOX, Doxorubicin HCl, reference compound]
[1]; 20 μM DOX in RPMI medium 1640 without phenol red, 50 mM HEPES pH 7.2, UVA
  first order rate constant of the decrease in DOX absorbance (KDOX): 0.000417 s⁻¹
[1]; 20 μM DOX, 2 μM riboflavin and 5 nM DABCO (FIG. 12)
  UVA irradiation required to destroy the DOX absorbance spectrum: 20 min
[1]; 20 μM DOX, 20 μM riboflavin, 5 mM DABCO in PBS (FIG. 13B)
  UVA irradiation required to eliminate the DOX absorbance spectrum: less than 2 minutes
[1]; 20 μM DOX, 20 μM riboflavin, 5 mM DABCO, PBS without Ca2+ and Mg2+ (FIG. 13C)
  time in which the DOX absorbance spectrum disappeared: less than 1 minute

## O=C(O)CN(CCN(CC(=O)O)CC(=O)O)CC(=O)O [EDTA, ethylenediaminetetraacetic acid]
[1]; 20 μM DOX
  photoenhancing effect on riboflavin-mediated UVA destruction of DOX (absorbance at 480 nm): enhanced

## NC(Cc1c[nH]c2ccccc12)C(=O)O (stereo not drawn) [α-Amino-Indole-3-propionic acid]
[1]; 20 μM DOX
  photoenhancing effect on riboflavin-mediated UVA destruction of DOX (absorbance at 480 nm): enhanced
[1]; 100 μM tryptophan, 20 μM DOX, 0.5 μM riboflavin in PBS
  effect on destruction of DOX in a riboflavin formulation by UVA irradiation: enhanced

## O=C1O[C@H]([C@@H](O)CO)C(O)=C1O [ascorbate, ascorbic acid]
[1]; 0.16 mM ascorbate, 20 μM DOX in RPMI medium 1640
  effect on the UVA-induced decrease of DOX absorbance: this decrease was smaller
[1]; 1.6 mM ascorbate, 20 μM DOX in RPMI medium 1640, 20 minutes of irradiation
  effect on the UVA-induced decrease of DOX absorbance: no changes in the absorbance spectrum of DOX

## N[C@@H](Cc1ccc(O)cc1)C(=O)O [4-Hydroxy Phenylalanine (Tyrosine), 4-Hydroxy Phenylalanine]
[1]; 20 μM DOX
  photoenhancing effect on riboflavin-mediated UVA destruction of DOX (absorbance at 480 nm): enhanced; also recorded: greatest photenhancing effect
[1]; 100 μM tyrosine, 20 μM DOX in PBS pH 7.2
  effect on the absorbance spectrum of DOX under UVA without riboflavin: essentially no impact on the absorbance spectrum of DOX

## N[C@@H](Cc1ccccc1)C(=O)O [Phenylalanine]
[1]; 20 μM DOX
  photoenhancing effect on riboflavin-mediated UVA destruction of DOX (absorbance at 480 nm): did not enhance
[5]; [6]
  Half-Life of ADR Destruction, 100 μM Test Compound and 0.5 μM Riboflavin: 75.3 min

## O=S(=O)(O)CCN1CCN(CCO)CC1 [HEPES, N-2-hydroxyethylpiperazine-N′-2-ethanesulfonic acid]
[1]; 5 mM HEPES, 20 μM DOX, riboflavin in PBS
  effect on riboflavin-mediated photoinactivation of DOX: accelerate the riboflavin-mediated photoinactivation of DOX

## CSCC[C@H](N)C(=O)O [Methionine]
[1]; 20 μM DOX
  photoenhancing effect on riboflavin-mediated UVA destruction of DOX (absorbance at 480 nm): enhanced

## O=C(O)C1c2ccccc2-c2ccccc21 [9-Fluorene Carboxylic acid]
[5]; [7]
  Half-Life of ADR Destruction, 100 μM Test Compound: 50.2 min
[5]; [6]
  Half-Life of ADR Destruction, 100 μM Test Compound and 0.5 μM Riboflavin: 43.0 min

## Cc1cc2nc3c(=O)[nH]c(=O)nc-3n(C[C@H](O)[C@H](O)[C@H](O)COP(=O)(O)O)c2cc1C [FMN, flavin mononucleotide]
[2]; 0.3 μM DOX in PBS, 8 min UVA
  effectiveness relative to FAD in mediating UVA obliteration of the DOX growth inhibitory effect: 5 fold

## Nc1ccc(F)cc1F [2,4-Difluoro Aniline]
[5]; [6]
  Half-Life of ADR Destruction, 100 μM Test Compound and 0.5 μM Riboflavin: 7.92 min

## Nc1ccc(OCc2ccccc2)cc1 [4-Benzyloxyaniline]
[5]; [7]
  Half-Life of ADR Destruction, 100 μM Test Compound: 100.3 min
[5]; [6]
  Half-Life of ADR Destruction, 100 μM Test Compound and 0.5 μM Riboflavin: 100.3 min

## superoxide dismutase
[1]; 300 U/ml SOD, 20 μM DOX in PBS
  effect on DOX inactivation by riboflavin or riboflavin-tyrosine and UVA: accelerates the rate at which DOX is inactivated

## CCc1ccc(N)cc1 [4-Ethyl Aniline]
[5]; [6]
  Half-Life of ADR Destruction, 100 μM Test Compound and 0.5 μM Riboflavin: 10.4 min

## Nc1cc(N)cc(CO)c1 [3,5-Diamino Benzyl Alcohol]
[5]; [6]
  Half-Life of ADR Destruction, 100 μM Test Compound and 0.5 μM Riboflavin: 75.3 min

## NS(=O)(=O)c1ccccc1 [Benzenesulfonamide]
[5]
  Half-Life of ADR Destruction, 100 μM Test Compound and 0.5 μM Riboflavin: 50.2 min

## Cn1c2ccccc2c(=O)c2ccccc21 [10-Methyl-9(10H) Acridone]
[5]
  Half-Life of ADR Destruction, 100 μM Test Compound: 16.7 min

## NC(=O)c1cccc(N)c1 [3-Aminobenzamide]
[5]; [6]
  Half-Life of ADR Destruction, 100 μM Test Compound and 0.5 μM Riboflavin: 6.87 ± 1.20 min
